ChEMBL document CHEMBL1138611, “Oxadiazolylindazole sodium channel modulators are neuroprotective toward hippocampal neurones” (J Med Chem, 2009)

How the values were obtained:
[1] = Inhibition of voltage-gated sodium channel in Wistar rat forebrain synaptosomes assessed as inhibition of [14C]guanidium ion flux; format: subcellular, Brain
Hippocampus = test: Neuroprotective activity in Wistar rat hippocampal slices assessed as ATP concentration at 50 uM relative to tetrodotoxin; format: functional
Cytochrome P450 2D6 = Cytochrome P450 2D6 (Homo sapiens, UniProt P10635); test: Inhibition of human recombinant CYP2D6; format: ADME
Sequence of Cytochrome P450 2D6 (P10635 whole entry): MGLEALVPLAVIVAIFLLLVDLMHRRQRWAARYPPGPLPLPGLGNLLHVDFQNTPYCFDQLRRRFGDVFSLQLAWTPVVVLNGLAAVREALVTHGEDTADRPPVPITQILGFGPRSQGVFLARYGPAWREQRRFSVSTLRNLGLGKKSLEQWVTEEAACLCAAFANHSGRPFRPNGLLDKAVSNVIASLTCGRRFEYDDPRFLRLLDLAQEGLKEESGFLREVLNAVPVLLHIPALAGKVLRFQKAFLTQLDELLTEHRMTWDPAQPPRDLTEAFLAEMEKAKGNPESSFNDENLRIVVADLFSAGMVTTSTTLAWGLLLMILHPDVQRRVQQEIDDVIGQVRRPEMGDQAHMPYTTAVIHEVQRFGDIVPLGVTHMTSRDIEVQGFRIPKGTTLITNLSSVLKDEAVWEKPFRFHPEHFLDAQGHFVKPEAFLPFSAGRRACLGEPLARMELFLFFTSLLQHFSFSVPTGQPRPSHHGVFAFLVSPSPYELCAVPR

Cytochrome P450 1A2 = target: T1, Cytochrome P450 1A2 (Homo sapiens, UniProt P05177); test: Inhibition of human recombinant CYP1A2; format: ADME
T1 sequence (P05177 whole entry): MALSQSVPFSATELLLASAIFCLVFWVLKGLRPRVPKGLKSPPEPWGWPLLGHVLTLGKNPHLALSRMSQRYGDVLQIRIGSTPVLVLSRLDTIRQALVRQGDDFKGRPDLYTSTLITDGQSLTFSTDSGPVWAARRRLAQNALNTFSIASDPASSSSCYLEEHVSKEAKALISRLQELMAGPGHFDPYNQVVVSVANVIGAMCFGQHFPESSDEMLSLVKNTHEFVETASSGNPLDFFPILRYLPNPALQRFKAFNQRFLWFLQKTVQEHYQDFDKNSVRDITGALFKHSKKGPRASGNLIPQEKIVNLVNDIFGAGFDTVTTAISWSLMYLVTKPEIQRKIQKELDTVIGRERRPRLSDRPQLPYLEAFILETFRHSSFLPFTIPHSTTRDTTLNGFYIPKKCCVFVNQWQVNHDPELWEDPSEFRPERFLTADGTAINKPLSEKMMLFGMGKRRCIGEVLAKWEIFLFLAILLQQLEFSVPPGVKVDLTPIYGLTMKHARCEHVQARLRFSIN

[2] = Displacement of [3H]BW202W92 from voltage-gated sodium channel in Wistar rat forebrain synaptosomes by liquid scintillation counting; format: subcellular, Brain

| SMILES | IC50 [1] [µM] | Activity (Hippocampus) [%] | IC50 (Cytochrome P450 2D6) [µM] | IC50 (Cytochrome P450 1A2) [µM] | IC50 [2] [µM] |
| --- | --- | --- | --- | --- | --- |
| COc1ccc(Cn2nc(-c3nc(CNC(=O)OC(C)(C)C)no3)c3ccccc32)cc1 | 4 | 0 | – | – | – |
| CC(C)(C)OC(=O)NCc1noc(-c2nn(Cc3cccc(OC(F)(F)F)c3)c3ccccc23)n1 | 0.9 | 0 | – | – | – |
| NCc1noc(-c2nn(CCOc3ccccc3)c3ccccc23)n1 | 30 | 40 | – | – | – |
| Cc1nc(-c2ccc(Cn3nc(-c4nc(CNC(=O)OC(C)(C)C)no4)c4ccccc43)cc2)no1 | 1 | – | – | – | – |
| COc1cc(Cn2nc(-c3nc(CN)no3)c3ccccc32)cc(OC)c1OC | 178 | 28 | – | – | – |
| CC(C)(C)OC(=O)NCc1noc(-c2nn(Cc3cccc(C(F)(F)F)c3)c3ccccc23)n1 | 8 | 3 | – | – | – |
| CC(=O)n1nc(-c2nc(CN)no2)c2ccccc21 | > 300 | 24 | > 10 | – | – |
| CC(C)(C)OC(=O)NCc1noc(-c2c3ccccc3nn2Cc2ccc3c(c2)OCO3)n1 | 3 | 0 | – | – | – |
| NCc1noc(-c2nn(Cc3cc(F)cc(F)c3F)c3ccccc23)n1 | 35 | 59 | – | – | – |
| NCc1noc(-c2n[nH]c3ccccc23)n1 | 2190 | 10 | 1 | 0.21 | – |
| O=C(NCc1noc(-c2nn(Cc3ccccc3)c3ccccc23)n1)c1ccccc1 | 18 | 23 | – | – | – |
| CC(C)(C)OC(=O)NCc1noc(-c2nn(Cc3cccc(Cl)c3)c3ccccc23)n1 | 4 | 12 | – | – | – |
| NCc1noc(-c2c3ccccc3nn2Cc2ccc3c(c2)OCO3)n1 | 34 | 55 | – | – | – |
| Cc1cccc(Cn2nc(-c3nc(CN)no3)c3ccccc32)c1 | 28 | 45 | 3.96 | 0.084 | – |
| NCc1noc(-c2nn(Cc3cccc(Cl)c3)c3ccccc23)n1 | 14 | 50 | – | – | – |
| NCc1noc(-c2nn(Cc3ccc4c(c3)OCO4)c3ccccc23)n1 | 30 | 44 | – | – | – |
| CC(C)(C)OC(=O)NCc1noc(-c2nn(Cc3cc(F)cc(F)c3F)c3ccccc23)n1 | 1 | 0 | – | – | – |
| CC(C)(C)OC(=O)NCc1noc(-c2c3ccccc3nn2CCc2ccccc2)n1 | 85 | 0 | – | – | – |
| CC(C)(C)OC(=O)NCc1noc(-c2nn(Cc3ccccc3)c3ccccc23)n1 | 5 | 19 | – | – | – |
| Cc1cccc(Cn2nc3ccccc3c2-c2nc(CN)no2)c1 | 26 | 37 | – | – | – |

| SMILES | IC50 [1] [µM] | Activity (Hippocampus) [%] | IC50 (Cytochrome P450 2D6) [µM] | IC50 (Cytochrome P450 1A2) [µM] | IC50 [2] [µM] |
| --- | --- | --- | --- | --- | --- |
| Cc1nc(-c2ccc(Cn3nc(-c4nc(CN)no4)c4ccccc43)cc2)no1 | 58 | – | – | – | – |
| CC(C)(C)OC(=O)NCc1noc(-c2c3ccccc3nn2Cc2cccc(Cl)c2)n1 | 4 | 0 | – | – | – |
| NCc1noc(-c2nn(Cc3ccc(C(N)=O)cc3)c3ccccc23)n1 | 195 | 8 | 1.3 | – | – |
| CC(=O)n1nc(-c2nc(CNC(=O)OC(C)(C)C)no2)c2ccccc21 | 132 | 4 | > 10 | – | – |
| COc1ccc(S(=O)(=O)n2nc(-c3nc(CN)no3)c3ccccc32)cc1OC | 102 | 2 | 2.9 | > 10 | – |
| Cc1cc(C)cc(Cn2nc(-c3nc(CNC(=O)OC(C)(C)C)no3)c3ccccc32)c1 | 4 | 0 | – | – | – |
| O=S(=O)(NCc1noc(-c2nn(Cc3ccccc3)c3ccccc23)n1)c1ccccc1 | 5 | 20 | – | – | – |
| Cc1cccc(Cn2nc(-c3nc(CNC(=O)OC(C)(C)C)no3)c3ccccc32)c1 | 1 | 0 | 20 | – | – |
| NCc1noc(-c2nn(Cc3ccccc3Cl)c3ccccc23)n1 | 20 | 43 | – | – | – |
| NCc1noc(-c2c3ccccc3nn2Cc2cccc(Cl)c2)n1 | 24 | 17 | – | – | 110 |
| NCc1noc(-c2nn(Cc3cccc(C(F)(F)F)c3)c3ccccc23)n1 | 26 | 58 | – | – | – |
| Cc1cc(C)cc(Cn2nc3ccccc3c2-c2nc(CN)no2)c1 | 14 | 35 | – | – | – |
| Cc1ccccc1Cn1nc(-c2nc(CN)no2)c2ccccc21 | 26 | 46 | – | – | – |
| NCc1noc(-c2nn(CCc3ccccc3)c3ccccc23)n1 | 35 | 49 | 1.32 | 0.034 | – |
| CC(C)(C)OC(=O)NCc1noc(-c2nn(Cc3ccccc3Cl)c3ccccc23)n1 | > 300 | 9 | – | – | – |
| CC(C)(C)OC(=O)NCc1noc(-c2n[nH]c3ccccc23)n1 | 96 | 0 | > 10 | 0.79 | – |
| CC(C)(C)OC(=O)NCc1noc(-c2nn(CCOc3ccccc3)c3ccccc23)n1 | 6 | 8 | – | – | – |
| CC(=O)Nc1ccc(Cn2nc(-c3nc(CN)no3)c3ccccc32)cc1 | 309 | 10 | – | – | – |
| COc1ccc(S(=O)(=O)n2nc(-c3nc(CNC(=O)OC(C)(C)C)no3)c3ccccc32)cc1OC | 2 | 10 | 20 | – | – |
| Cc1cc(C)cc(Cn2nc3ccccc3c2-c2nc(CNC(=O)OC(C)(C)C)no2)c1 | 12 | 0 | – | – | – |

| SMILES | IC50 [1] [µM] | Activity (Hippocampus) [%] | IC50 (Cytochrome P450 2D6) [µM] | IC50 (Cytochrome P450 1A2) [µM] | IC50 [2] [µM] |
| --- | --- | --- | --- | --- | --- |
| CC(C)(C)OC(=O)NCc1noc(-c2nn(Cc3ccc4ccccc4c3)c3ccccc23)n1 | 0.4 | 0 | – | – | – |
| NCc1noc(-c2nn(Cc3cccc(OC(F)(F)F)c3)c3ccccc23)n1 | 26 | 33 | – | – | – |
| Cc1cc(C)cc(Cn2nc(-c3nc(CN)no3)c3ccccc32)c1 | 15 | 43 | 3.73 | 0.062 | – |
| Cc1ccc(Cn2nc(-c3nc(CNC(=O)OC(C)(C)C)no3)c3ccccc32)cc1 | 2 | 0 | – | – | – |
| COc1cc(Cn2nc(-c3nc(CNC(=O)OC(C)(C)C)no3)c3ccccc32)cc(OC)c1OC | 195 | 0 | – | – | – |
| Cc1ccccc1Cn1nc(-c2nc(CNC(=O)OC(C)(C)C)no2)c2ccccc21 | 3 | 0 | – | – | – |
| CC(C)(C)OC(=O)NCc1noc(-c2nn(CCc3ccccc3)c3ccccc23)n1 | 5 | 0 | – | – | – |
| Cc1cccc(Cn2nc3ccccc3c2-c2nc(CNC(=O)OC(C)(C)C)no2)c1 | 151 | 0 | – | – | – |
| CC(=O)Nc1ccc(Cn2nc(-c3nc(CNC(=O)OC(C)(C)C)no3)c3ccccc32)cc1 | 15 | 47 | 13 | 5.92 | – |
| Cc1ccc(Cn2nc(-c3nc(CN)no3)c3ccccc32)cc1 | 17 | 34 | – | – | – |
| CC(C)(C)OC(=O)NCc1noc(-c2nn(Cc3ccc4c(c3)OCO4)c3ccccc23)n1 | 1 | 0 | 3.3 | 4.86 | – |
| NCc1noc(-c2nn(Cc3ccc4ccccc4c3)c3ccccc23)n1 | 20 | 11 | – | – | – |
| CC(C)(C)OC(=O)NCc1noc(-c2c3ccccc3nn2Cc2ccccc2)n1 | 174 | 25 | – | – | – |
| O=C(NCc1noc(-c2nn(Cc3ccccc3)c3ccccc23)n1)OCc1ccccc1 | 5 | 12 | – | – | – |
| CC(C)(C)OC(=O)NCc1noc(-c2nn(Cc3ccc(C(N)=O)cc3)c3ccccc23)n1 | 24 | 29 | > 10 | – | – |
| NCc1noc(-c2nn(Cc3ccc(-c4cn[nH]c4)cc3)c3ccccc23)n1 | 63 | 26 | – | – | – |
| CC(C)(C)OC(=O)NCc1noc(-c2nn(Cc3ccc(-c4cn[nH]c4)cc3)c3ccccc23)n1 | 16 | 20 | > 10 | – | – |
| COc1ccc(Cn2nc(-c3nc(CN)no3)c3ccccc32)cc1 | 38 | 35 | – | – | – |
| NCc1noc(-c2c3ccccc3nn2CCc2ccccc2)n1 | 19 | 54 | 4.27 | 0.36 | – |
